Source: patent US20030157715A1, “Modulation of chromosome function by chromatin remodeling agents” (priority 2000, published 2003)

Experiments:
Drosophila histone SAR = assay: DNase I footprinting on SAR probe; type: binding
Experimental: Synthetic oligonucleotides […] and […] were hybridized to obtain the W9 probe, oligomerized by ligation and digested with BamHI and BglII to obtain different tandem repeats. The following oligonucleotides were prepared identically: GAF31 is composed of the oligonucleotides […] and […] and, BrownI of oligonucleotides […] and […]. Fragments were purified on low-melt agarose gels and then cloned into a modified pSP64 vector, cut by BamHI and BglII. End-labeling was carried out following digestion with HindIII and a fill-in reaction with Klenow DNA polymerase. The labeled plasmid was cut with PvuII and the target fragments purified from low-melting agarose gels. The 657 bp EcoR1/Hinf1 fragment of the Drosophila histone SAR was cloned into the SmaI site of the modified pSP64 plasmid. This SAR probe was end-labeled following-digestion with EcoR1, then cut with ClaI and the resulting 347 bp fragment purified from low-melting agarose gels.
All reactions were performed in a total volume of 40 μl. A polyamide stock solution or buffer (for reference lanes) was added to an assay buffer containing 20 kcpm radiolabeled DNA, affording final concentrations of 10 mM Tris-HCl (pH 7.4), 10 mM KCl, 10 MM MgCl, 5 mM CaCl2, 0.5 mM EDTA, 0.5 mM EGTA, 1 mM DTT and 0.1% digitonine. The solutions were allowed to equilibrate for at least 2 h at room temperature. Footprinting reactions were initiated by the addition of 2 μl of a DNase stock solution (containing −100 μg DNase I in buffer) and allowed to proceed for 2 min at room temperature. The reactions were stopped by addition of 10 μl of a solution containing 1.25 M NaCl, 100 mM EDTA. Next, 5 μl of a 1% SDS solution was added, followed by 2 μl of a solution containing 1 μg poly(dA-dT), 1 μg salmon sperm DNA and 10 μg glycogen and the DNA was ethanol precipitated (20 min at −20 C.). The reactions were resuspended in 4 μl of 80% formamide loading buffer, denatured 10 min at 85 C., cooled on ice and electrophoresed on 8% polyacrylamide denaturing gels (5% cross-link, 8 M urea) at 30 W for 1 h. The gels were dried and exposed o/n at −70 C.

[1] = system: GAF binding site from the Ubx promoter; assay: DNase I footprinting on Ubx GAF binding site (GAF31 probe); design: species or system Drosophila melanogaster; conditions: same probe as bw^D repeats
Description: A footprint experiment was therefore carried out with this protein. The DNA probe (GAF31) used for this purpose contains besides the (AAGAG)2 motif (the target of P31) a typical promoter proximal GAF binding site derived from the Ubx gene (Biggin et al., 1988). This Ubx site contains the pentameric consensus sequence GAGAG of GAF (Omichinski et al., 1997). […] Selective Staining of GAGAA Satellite V in Nuclei and Polytene Chromosomes:
Synthetic oligonucleotides […] and […] were hybridized to obtain the W9 probe, oligomerized by ligation and digested with BamHI and BglII to obtain different tandem repeats. The following oligonucleotides were prepared identically: GAF31 is composed of the oligonucleotides […] and […] and, BrownI of oligonucleotides […] and […]. Fragments were purified on low-melt agarose gels and then cloned into a modified pSP64 vector, cut by BamHI and BglII. End-labeling was carried out following digestion with HindIII and a fill-in reaction with Klenow DNA polymerase. The labeled plasmid was cut with PvuII and the target fragments purified from low-melting agarose gels. The 657 bp EcoR1/Hinf1 fragment of the Drosophila histone SAR was cloned into the SmaI site of the modified pSP64 plasmid. This SAR probe was end-labeled following-digestion with EcoR1, then cut with ClaI and the resulting 347 bp fragment purified from low-melting agarose gels. […]

[2] = system: homozygous bw^D/bw^D flies; assay: P31 fed to developing homozygous brown-dominant flies; type: in vivo
Experimental: These experiments established a remarkable molecular interplay between the GAGAA insert of the bw^D allele and its target-compound P31.
Drug treatments of the bw^D flies were performed as for w^m4 flies except that 30 parental females were allowed to lay eggs. To obtain the heterozygous bw^D/+; st/st progeny, 30 virgin bw^D/bw^D; st/st homozygous females were mated with scarlet homozygous males for about 5 days before transferring them to experimental vials for egg laying.
The lethality of the progenies was calculated by counting the dead bodies and the total empty pupal shells. The A6 to A5 transformation was detected by bristles that form on abdominal segment A6 on males. All male adult flies obtained (˜50) were scored. Sex combs and halteres were individually inspected and photographed under the microscope (Axiophot, Zeiss) after dissecting at least 30 individuals and incubating them into 30 μl of 0.6 g/ml gum arabic; 4 g/ml chlorohydrate; 35% glycerol under a 24×24 mm coverslip as described (Ashburner, 1989). Since raising double heterozygous flies (Ubx^1/+; bw^D/+) led to lethality, we morphologically dissected eight late stage pupae after carefully removing the pupal envelope.

[3] = system: homozygous bw^D/bw^D flies; assay: as above; type: in vivo; conditions: 40 homozygous bw^D males
[4] = fly stock of r12, bw^D/bw^+, homozygous per text

Row | SMILES | Ratio (Drosophila histone SAR; Kdapp W9 / Kdapp SAR (SAR specificity factor)) | Kd (Drosophila histone SAR; apparent binding affinity, DNase I footprinting, SAR probe, read-out: Kdapp SAR) [pM] | ligand concentration up to which no binding is noted at the Ubx GAF site [1] [nM] | A6 to A5 [2, 4] [%] | Lethality [2, 4] [%] | Sex comb, range of teeth [2, 4] | Sex comb (mean) ([2]; fly stock of r12, bw^D/bw^+, text: homozygous) | A6 to A5, number of bristles on A6 ([2]; fly stock of r12, bw^D/bw^+, text: homozygous bw^D males) | sex comb teeth, number mostly found ([2]; homozygous bw^D) | progeny that died at the pupal stage ([2]; homozygous bw^D flies) | Pupae delay (hrs) ([2]; in vivo) [hrs-∞] | delay of hatching ([2]; in vivo) [h] | mean number of bristles on A6 [3]
1 | CN(C)CCCNC(=O)CCNC(=O)c1cc(NC(=O)c2cc(NC(=O)c3cc(NC(=O)CCNC(=O)c4cc(NC(=O)c5cc(NC(=O)c6cccn6C)cn5C)cn4C)cn3C)cn2C)cn1C [Compound P9, PyPyPy-β-PyPyPy-β-Dp] | 1.4 | 550 |  |  |  |  |  |  |  |  |  |  | 
2 | CN(C)CCCNC(=O)CCNC(=O)c1nc(NC(=O)CCNC(=O)c2nc(NC(=O)CCNC(=O)c3cc(NC(=O)c4nc(NC(=O)CCNC(=O)c5nccn5C)cn4C)cn3C)cn2C)cn1C [Compound P31, Im-β-Im-Py-β-Im-β-Im-β-Dp] |  |  | > 25 | 100 | 66 | 6-9 | 7.2 | 3-10 | 6 | about two thirds | ≥ 65 | 65 to 75 | 6
